From US20250101065A1, “REVERSE PEPTIDES FROM CORONAVIRUS FOR IMMUNOGENIC PURPOSES” (Emergex Vaccines Holding Limited, priority 2021, published 2025)
No end group written: not given here.

Key:
human PBMCs = experiment: IFN-gamma ELISPOT after stimulation of PBMCs with negative sense SARS-COV-2 peptides; format: cell-based
CD3+ T cells of PBMCs = experiment: Flow cytometry analysis of T cell surface markers after peptide stimulation of PBMCs; format: cell-based, human
Experimental: At day 7 post-stimulation, remaining PBMCs were resuspended in flow cytometry buffer (PBS+1% BSA+2 mM EDTA) at a concentration of 1×10^6 cells/mL, and blocked for at least 10 minutes. Cells were then aliquoted in a 96-well plate, centrifuged (5 mins/[…]/300×g), and resuspended in 45 μL buffer. Live/Dead stain was added (Fixable Near IR) at 1 μL in 1000 μL, and cells incubated at […] for 10 minutes in the dark. 120 μL buffer was added, samples were centrifuged for 5 mins, supernatants discarded and wash repeated with 200 μL buffer. Cells were then resuspended in buffer containing antibodies to T cell markers at the appropriate concentration (final staining volume 50 μL) and incubated for at least 30 minutes in the dark at […]
120 μL buffer was added to cell samples, centrifuged for 5 mins, supernatants discarded. This wash step was then repeated. Compensation beads were incubated with the individual antibodies at the same concentration. Voltages on the Attune flow cytometer were adjusted using antibody-stained compensation beads, as well as unstained and NIR-stained cells.
Acquisition was set to acquire at least 150,000 events on CD3 gated cells.
PBMCs were stained with a panel of antibodies (as listed in the previous section) against cell surface markers to characterize different T cell populations, such as naïve T cells (A), Central memory T cells (B), Effector memory T cells (C) and (D), and resident memory T cells (E). In addition, activation markers were also analysed (F) to (I). The percentage of positive cells gated on CD3+T cell populations were plotted.

[1] = PBMCs from EVB00028, day 7 post-stimulation

Sequence	IFN-gamma ELISPOT reactivity (human PBMCs; all three donors (EVB00028, EVB00031, EVB00033), 7 days stimulation, 24 h re-stimulation)	Activation of CD3+ cells (upregulation of CD69, CD38, OX40/CD25, PDL1/CD25) (CD3+ T cells of PBMCs; [1])	Activation of CD3+ cells (upregulation of CD69, CD38, OX40/CD25, PDL1/CD25) (CD3+ T cells of PBMCs; PBMCs from EVB00033, day 7 post-stimulation)	IFN-gamma ELISPOT reactivity (human PBMCs; donors EVB00028 and EVB00031)	IFN-gamma ELISPOT reactivity (human PBMCs; donor EVB00033)
LYVALLVALLTCQ [SEQ ID NO: 6, LYVALLVALLTCQ]	strong reactivity	induced activation	similarly activated	–	–
VFTLHSRTSF [SEQ ID NO: 12]	–	–	–	reacted strongly	–
VALLTCQTIGLCN [SEQ ID NO: 11]	–	induced activation	–	–	reacted strongly
